The source of these data is patent US20150148551A1, “GENISTEIN FOR REDUCING LEVELS OF STORAGE COMPOUNDS IN THE TREATMENT AND/OR PREVENTION OF LYSOSOMAL STORAGE DISEASES (LSDS)” (3G THERAPEUTICS, INC., priority 2012, published 2015).

What all share (assay type): cell-based, human
Experiment [1] has as its system SLC11A2. The experiment can be described thus: DNA microarray, SLC11A2 expression in fibroblasts exposed to genistein. Particulars: for SLC11A2 fold change Average: 48 h vs DMSO. As for the experimental part:
(§1) The experiments were conducted to characterise the transcriptomic profile of human fibroblast cells exposed to genistein, and in particular to determine the expression of genes encoding lysosomal enzymes involved in metabolism (i.e. synthesis and degradation) of organic substances. The absence or deficiency of these enzymes' activity is responsible for occurrence of various lysosomal storage diseases (LSD) (including MPS). The tested hypothesis assumed that genistein influences the expression of many genes, among which there are genes coding for enzymes required in metabolism of compounds, which are pathologically stored in LSD. The results provide important information regarding genistein action on the molecular level within the range of gene expression modulation by this substance. The experiment was conducted in biological quintuplicates. Human dermal fibroblasts (HDFa) were exposed in vitro for 1, 24 or 48 hours to: 30, 60 or 100 μM of genistein; 0.05% DMSO (K1); or were untreated (control cells) (K2), and total RNA was isolated and analysed.
(§2) Fibroblast cells were grown in Dulbecco (DMEM) medium supplemented with 10% fetal bovine serum (FBS) with the addition of 1% antibiotics and anti-fungal agents at 37° C. in humidified atmosphere of 5% CO2, until the required confluency was obtained.
(§3) To determine the effect of tested compound on the transcriptom of the fibroblast cells, the growth medium was replaced with fresh medium, either non-supplemented (0.05% DMSO), or containing genistein (30, 60 or 100 μM, in 0.05% DMSO). The exposure was done for 1, 24 or 48 hours.
(§4) Total RNA was isolated from fibroblasts using High Pure RNA Isolation Kit according to the protocol and then it was quantitatively evaluated using Quant-It™ RiboGreen® Assay Kit.
(§5) Biotinylated cRNA was prepared using Ambion Total PrepAmp Kit for Illumina arrays.
(§6) Standard hybridization and quantitative image analysis procedures—Illumina hybridization protocol and Illumina scanning protocol, were used.
(§7) Processing of the results was done during data definition, including: background correction (using background subtraction method), normalization (using quantile normalization algorithm with Illumina GenomeStudio software package: gene expression module version 1.9.0) and summarization (using method, which sums the values of signal intensities from a set of probes).

For experiment [2], the system named is SUMF1. The experiment can be described thus: DNA microarray, SUMF1 expression in fibroblasts exposed to genistein. Conditions: for SUMF1 fold change Average: 48 h vs DMSO. Here is the method:
as §1, §2, §3, §4, §5, §6, §7

The subject of experiment [3] is FVT1. The experiment can be described thus: DNA microarray, FVT1 expression in fibroblasts exposed to genistein. Conditions: for FVT1 fold change Average: 48 h vs DMSO. Here is the method:
as §1, §2, §3, §4, §5, §6, §7

Molecules are shown by their SMILES.

`O=c1c(-c2ccc(O)cc2)coc2cc(O)cc(O)c12` [genistein, 4′,5,7-trihydroxy-3-phenylchromen-4-one]: the “SLC11A2 fold change Average 1h30/1hK1” value in experiment [1] (30 μM, 1 h vs 0.05% DMSO) stood at 1.0227 fold change. Also, the entries for the “SLC11A2 fold change Average” value in experiment [1] (30 μM), in experiment [1] (60 μM) and in experiment [1] (100 μM) were 1.2196 fold change, 1.549 fold change and 1.499 fold change, respectively. Further, the “SLC11A2 fold change Average 1h60/1hK1” value in experiment [1] (60 μM, 1 h vs 0.05% DMSO) is reported as 1.053 fold change. In addition, the “SLC11A2 fold change Average 1h100/1hK1” value in experiment [1] (100 μM, 1 h vs 0.05% DMSO) came out at 1.056 fold change. Further, the “SUMF1 fold change Average 1h30/1hK1” value in experiment [2] (30 μM, 1 h vs 0.05% DMSO) is 1.1314 fold change. Further, the “SUMF1 fold change Average” value in experiment [2] (30 μM) is given as 1.2364 fold change; in experiment [2] (60 μM), 1.849 fold change; in experiment [2] (100 μM) it was 1.705 fold change. Also, the “SUMF1 fold change Average 1h60/1hK1” value in experiment [2] (60 μM, 1 h vs 0.05% DMSO) is 1.158 fold change. Besides, the “SUMF1 fold change Average 1h100/1hK1” value in experiment [2] (100 μM, 1 h vs 0.05% DMSO) is 1.095 fold change. The “FVT1 fold change Average 1h30/1hK1” value in experiment [3] (30 μM, 1 h vs 0.05% DMSO) was determined as 1.0953 fold change. Also, the “FVT1 fold change Average” value in experiment [3] (30 μM) is reported as 1.2441 fold change; in experiment [3] (60 μM) it was 1.603 fold change; in experiment [3] (100 μM), 1.422 fold change. The “FVT1 fold change Average 1h60/1hK1” value in experiment [3] (60 μM, 1 h vs 0.05% DMSO) is listed as 1.137 fold change. Further, in experiment [3] (100 μM, 1 h vs 0.05% DMSO), the “FVT1 fold change Average 1h100/1hK1” value was 1.035 fold change.
